Results from US20190292179A1 (BRISTOL-MYERS SQUIBB COMPANY, priority 2016, published 2019).

Target: T1, HIS-TGFβR1 T204D (Homo sapiens, UniProt P36897, T204D)
T1 sequence (P36897 34-503 T204D): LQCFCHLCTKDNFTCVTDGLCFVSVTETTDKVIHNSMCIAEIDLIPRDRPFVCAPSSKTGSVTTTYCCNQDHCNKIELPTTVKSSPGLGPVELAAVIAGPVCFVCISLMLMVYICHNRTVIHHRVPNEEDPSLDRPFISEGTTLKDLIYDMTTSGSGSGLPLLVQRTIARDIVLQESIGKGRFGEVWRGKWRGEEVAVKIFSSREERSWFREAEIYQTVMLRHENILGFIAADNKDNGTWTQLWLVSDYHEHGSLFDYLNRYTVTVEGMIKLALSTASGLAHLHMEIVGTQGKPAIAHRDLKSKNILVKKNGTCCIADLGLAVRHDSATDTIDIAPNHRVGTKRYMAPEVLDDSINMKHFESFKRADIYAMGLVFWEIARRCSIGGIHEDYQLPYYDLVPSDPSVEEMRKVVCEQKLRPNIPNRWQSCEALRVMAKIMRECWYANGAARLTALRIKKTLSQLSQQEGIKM
Assay: HTRF probe-displacement assay with HIS-TGFβR1 T204D
Type: binding
Settings: 1 nM HIS-TGFβR1 T204D, labeled probe at Kd, 1 hour at room temperature
Description: The reaction is incubated for 1 hour at room temperature and the HTRF signal was measured on an Envision plate reader (Ex: 340 nm; Em: 520 nm/495 nm). Inhibition data were calculated by comparison to no enzyme control reactions for 100% inhibition and vehicle-only reactions for 0% inhibition. The final concentration of reagents in the assay are 1 nM HIS-TGFβR1 T204D or HIS-TGFβR2 WT, 0.2 nM anti-HIS detection antibody, labeled small molecule probe (at Kd) and 0.5% DMSO. Dose response curves were generated to determine the concentration required inhibiting 50% of kinase activity (IC50). Compounds were dissolved at 10 mM in dimethylsulfoxide (DMSO) and evaluated at eleven concentrations. IC50 values were derived by non-linear regression analysis.

| Compound | IC50 [µM] |
| --- | --- |
| Cc1cccc(-c2c(-c3ccc4ncc(C#N)n4c3)c(C(C)C)nn2C)n1 [Example 117, 6-(3-isopropyl-1-methyl-5-(6-methylpyridin-2-yl)-1H-pyrazol-4-yl)imidazo[1,2-a]pyridine-3-carbonitrile] | 0.009 |
| Cc1cccc(-c2n[nH]c(C(F)F)c2-c2ccc3nccn3c2)n1 [Example 140, 6-(5-(difluoromethyl)-3-(6-methylpyridin-2-yl)-1H-pyrazol-4-yl)imidazo[1,2-a]pyridine] | 0.001 |
| CC(C)c1nn(C)c(-c2ccc(F)cc2)c1-c1ccc2ncc(C(N)=O)n2c1 [Example 71] | 0.145 |
| CCOC(=O)c1[nH]nc(-c2cccc(C)n2)c1-c1ccc2nccn2c1 [Example 139, ethyl 4-(imidazo[1,2-a]pyridin-6-yl)-3-(6-methylpyridin-2-yl)-1H-pyrazole-5-carboxylate] | 0.002 |
| NC(=O)c1cnc2ccc(-c3cn(CC(F)F)nc3-c3cccc(C(F)(F)F)n3)cn12 [Example 8, 6-(1-(2,2-difluoroethyl)-3-(6-(trifluoromethyl)pyridin-2-yl)-1H-pyrazol-4-yl)imidazo[1,2-a]pyridine-3-carboxamide] | 0.006 |
| CC(C)c1c(-c2ccc3ncc(C(C)(C)O)n3c2)c(-c2ccc(F)cc2)nn1C [Example 74, 2-(6-(3-(4-fluorophenyl)-5-isopropyl-1-methyl-1H-pyrazol-4-yl)imidazo[1,2-a]pyridin-3-yl)propan-2-ol] | 0.374 |
| CC(=O)Nc1[nH]nc(-c2ccc(F)cc2)c1-c1ccc2ncc(C#N)n2c1 [Example 142, N-(4-(3-cyanoimidazo[1,2-a]pyridin-6-yl)-3-(4-fluorophenyl)-1H-pyrazol-5-yl)acetamide] | 0.274 |
| Cc1cccc(-c2nn(C)cc2-c2ccc3ncc(NC(=O)C(F)(F)F)n3c2)n1 [Example 54] | 0.079 |
| N#Cc1cnc2ccc(-c3c(-c4ccc(F)cc4)n[nH]c3C(=O)NC3CC3)cn12 [Example 131, 4-(3-cyanoimidazo[1,2-a]pyridin-6-yl)-N-cyclopropyl-3-(4-fluorophenyl)-1H-pyrazole-5-carboxamide] | 1.41 |
| CC(=O)Nc1[nH]nc(-c2ccc(F)cc2)c1-c1ccc2ncc(C(N)=O)n2c1 [Example 143, 6-(5-acetamido-3-(4-fluorophenyl)-1H-pyrazol-4-yl)imidazo[1,2-a]pyridine-3-carboxamide] | 0.027 |
| O=C(O)c1[nH]nc(-c2ccc(F)cc2)c1-c1ccc2nccn2c1 [Example 133, 3-(4-fluorophenyl)-4-(imidazo[1,2-a]pyridin-6-yl)-1H-pyrazole-5-carboxylic acid] | 25.3 |
| N#Cc1cnc2ccc(-c3c(-c4ccc(F)cc4)nn4c3COCC4)cn12 [Example 110, 6-(2-(4-fluorophenyl)-6,7-dihydro-4H-pyrazolo[5,1-c][1,4]oxazin-3-yl)imidazo[1,2-a]pyridine-3-carbonitrile] | 0.173 |
| N#Cc1cnc2ccc(-c3c(-c4ccc(Cl)cc4)n[nH]c3C3CC3)cn12 [Example 96, 6-(3-(4-chlorophenyl)-5-cyclopropyl-1H-pyrazol-4-yl)imidazo[1,2-a]pyridine-3-carbonitrile] | 0.07 |
| CC(C)c1nn(C)c(-c2ccc(F)cc2)c1-c1ccc2ncc(C(C)(C)O)n2c1 [Example 73, 2-(6-(5-(4-fluorophenyl)-3-isopropyl-1-methyl-1H-pyrazol-4-yl)imidazo[1,2-a]pyridin-3-yl)propan-2-ol] | 9.86 |
| N#Cc1cnc2ccc(-c3c(-c4ccc(F)cc4)n[nH]c3C(N)=O)cn12 [Example 130, 4-(3-cyanoimidazo[1,2-a]pyridin-6-yl)-3-(4-fluorophenyl)-1H-pyrazole-5-carboxamide] | 0.145 |
| CCOC(=O)c1[nH]nc(-c2cccc(C)n2)c1-c1ccc2ncc(C#N)n2c1 [Example 138, ethyl 4-(3-cyanoimidazo[1,2-a]pyridin-6-yl)-3-(6-methylpyridin-2-yl)-1H-pyrazole-5-carboxylate] | 0.002 |
| CCc1[nH]nc(-c2ccc(F)cc2)c1-c1ccc2nccn2c1 [Example 83, 6-(5-ethyl-3-(4-fluorophenyl)-1H-pyrazol-4-yl)imidazo[1,2-a]pyridine] | 0.017 |
| N#Cc1cnc2ccc(-c3c[nH]nc3-c3cccc(C(F)(F)F)n3)cn12 [Example 1, 6-(3-(6-(trifluoromethyl)pyridin-2-yl)-1H-pyrazol-4-yl)imidazo[1,2-a]pyridine-3-carbonitrile] | 0.001 |

| Compound | IC50 [µM] |
| --- | --- |
| N#Cc1cnc2ccc(-c3cn(CC(F)F)nc3-c3cccc(C(F)(F)F)n3)cn12 [Example 7, 6-(1-(2,2-difluoroethyl)-3-(6-(trifluoromethyl)pyridin-2-yl)-1H-pyrazol-4-yl)imidazo[1,2-a]pyridine-3-carbonitrile] | 0.008 |
| N#Cc1cnc2ccc(-c3c(-c4ccc(F)cc4)n[nH]c3C(F)(F)F)cn12 [Example 105, 6-(3-(4-fluorophenyl)-5-(trifluoromethyl)-1H-pyrazol-4-yl)imidazo[1,2-a]pyridine-3-carbonitrile] | 0.041 |
| CC(C)(O)c1cnc2ccc(-c3c(-c4ccc(F)cc4)nn4c3COCC4)cn12 [Example 113, 2-(6-(2-(4-fluorophenyl)-6,7-dihydro-4H-pyrazolo[5,1-c][1,4]oxazin-3-yl)imidazo[1,2-a]pyridin-3-yl)propan-2-ol] | 3.81 |
| CC(=O)Nc1cnc2ccc(-c3c[nH]nc3-c3ccc(F)cc3)nn12 [Example 58, N-(6-(3-(4-fluorophenyl)-1H-pyrazol-4-yl)imidazo[1,2-b]pyridazin-3-yl)acetamide] | 0.025 |
| Fc1ccc(-c2n[nH]c(C(F)(F)F)c2-c2ccc3nccn3c2)cc1 [Example 107, 6-(3-(4-fluorophenyl)-5-(trifluoromethyl)-1H-pyrazol-4-yl)imidazo[1,2-a]pyridine] | 0.147 |
| Cn1nc(-c2ccc(F)cc2)c(-c2ccc3ncc(C(N)=O)n3c2)c1C(F)(F)F [Example 108, 6-(3-(4-fluorophenyl)-1-methyl-5-(trifluoromethyl)-1H-pyrazol-4-yl)imidazo[1,2-a]pyridine-3-carboxamide] | 0.022 |
| CC(C)c1[nH]nc(-c2ccc(Cl)cc2)c1-c1ccc2ncc(C#N)n2c1 [Example 75, 6-(3-(4-chlorophenyl)-5-isopropyl-1H-pyrazol-4-yl)imidazo[1,2-a]pyridine-3-carbonitrile] | 0.054 |
| OCc1cnc2ccc(-c3c(-c4ccc(F)cc4)n[nH]c3C3CC3)cn12 [Example 90, (6-(5-cyclopropyl-3-(4-fluorophenyl)-1H-pyrazol-4-yl)imidazo[1,2-a]pyridin-3-yl)methanol] | 0.004 |
| CC(C)c1[nH]nc(-c2ccc(Cl)cc2)c1-c1ccc2nccn2c1 [Example 77, 6-(3-(4-chlorophenyl)-5-isopropyl-1H-pyrazol-4-yl)imidazo[1,2-a]pyridine] | 0.144 |
| Fc1ccc(-c2n[nH]c(C3CC3)c2-c2ccc3ncc(F)n3c2)cc1 [Example 102, 6-(5-cyclopropyl-3-(4-fluorophenyl)-1H-pyrazol-4-yl)-3-fluoroimidazo[1,2-a]pyridine] | 0.014 |
| CC(O)c1cnc2ccc(-c3c(-c4ccc(F)cc4)n[nH]c3C3CC3)cn12 (stereo not drawn) [Example 91, 1-(6-(5-cyclopropyl-3-(4-fluorophenyl)-1H-pyrazol-4-yl)imidazo[1,2-a]pyridin-3-yl)ethanol] | 0.008 |
| Cn1nc(C2CC2)c(-c2ccc3ncc(F)n3c2)c1-c1ccc(F)cc1 [Example 104, 6-(3-cyclopropyl-5-(4-fluorophenyl)-1-methyl-1H-pyrazol-4-yl)-3-fluoroimidazo[1,2-a]pyridine] | 2.24 |
| C=C(C)c1[nH]nc(-c2ccc(F)cc2)c1-c1ccc2nccn2c1 [Example 136, 6-(3-(4-fluorophenyl)-5-(prop-1-en-2-yl)-1H-pyrazol-4-yl)imidazo[1,2-a]pyridine] | 0.023 |
| Cn1nc(C2CC2)c(-c2ccc3ncc(C(N)=O)n3c2)c1-c1ccc(F)cc1 [Example 95, 6-(3-cyclopropyl-5-(4-fluorophenyl)-1-methyl-1H-pyrazol-4-yl)imidazo[1,2-a]pyridine-3-carboxamide] | 0.058 |
| Cn1cc(-c2ccc3ncc(C#N)n3c2)c(-c2cccc(C(F)(F)F)n2)n1 [Example 9, 6-(1-methyl-3-(6-(trifluoromethyl)pyridin-2-yl)-1H-pyrazol-4-yl)imidazo[1,2-a]pyridine-3-carbonitrile] | 0.024 |
| Cc1cc(-c2n[nH]c(C(C)C)c2-c2ccc3nccn3c2)ccc1F [Example 80, 6-(3-(4-fluoro-3-methylphenyl)-5-isopropyl-1H-pyrazol-4-yl)imidazo[1,2-a]pyridine] | 0.001 |
| CC(C)(O)c1cnc2ccc(-c3c(-c4ccc(F)cc4)n[nH]c3C3CC3)cn12 [Example 89, 2-(6-(5-cyclopropyl-3-(4-fluorophenyl)-1H-pyrazol-4-yl)imidazo[1,2-a]pyridin-3-yl)propan-2-ol] | 0.01 |
| Nc1cc(-c2c[nH]nc2-c2ccc(F)cc2)cn2ccnc12 [Example 32, 6-(3-(4-fluorophenyl)-1H-pyrazol-4-yl)imidazo[1,2-a]pyridin-8-amine] | 0.465 |
